# From the supplement of paper PMC10307832
# What was measured:
# Experiment in all cases: relative viability (nuclei count vs DMSO), 5 days (fraction); higher = more cells survive
# [1] = compound: C1CN(CCN1)C2=CC=C(C=C2)C3=CN4C(=C(C=N4)C5=CC=NC6=CC=CC=C56)N=C3 [DM3189]
# Method in brief: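 Viability is treated-well nuclei as a fraction of vehicle-well nuclei, reported as the median across plates. Before counting, lung cancer cell lines were kept overnight at 37 °C in 1536-well plates, pinned with five √10-spaced library-drug doses on vehicle-anchored plates, and left 5 days without medium change, then fixed, permeabilised and Hoechst-stained in one step, imaged at 4× and counted by MetaXpress. A plate passed only if control CV was below 25% and at least one doubling occurred.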
# [2] = compound: C1CN(CCN1)C2=CC=C(C=C2)C3=CN4C(=C(C=N4)C5=CC=NC6=CC=CC=C56)N=C3 [DM3189] + C[C@]1(O)C[C@@H](c2nc(-c3ccc4ccc(-c5ccccc5)nc4c3)c3c(N)nccn32)C1 [Linsitinib] (partner 1 µM)
# Method in brief: (§1)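 The day after seeding in 1536-well plates, lung cancer cell lines were treated by pin tool with a single drug, or with a fixed anchor-drug dose together with five library-drug doses (not always all listed) in √10 steps. After 5 days, a combined fix-and-stain solution (final 0.05% Triton X-100, 1% formaldehyde, 1 ug/ml Hoechst) was added. Nuclei counted on 4× images gave relative viability as treated counts over vehicle counts, reported as the median of duplicate plates.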
# [3] = compound: C1CN(CCN1)C2=CC=C(C=C2)C3=CN4C(=C(C=N4)C5=CC=NC6=CC=CC=C56)N=C3 [DM3189] + C[C@@H](Oc1cc(-c2cnn(C3CCNCC3)c2)cnc1N)c1c(Cl)ccc(F)c1Cl [Crizotinib] (partner 1 µM)
# Method in brief: as §1
# [4] = compound: C1CN(CCN1)C2=CC=C(C=C2)C3=CN4C(=C(C=N4)C5=CC=NC6=CC=CC=C56)N=C3 [DM3189] + CCNC(=O)c1noc(-c2cc(C(C)C)c(O)cc2O)c1-c1ccc(CN2CCOCC2)cc1 [Luminespib] (partner 0.01 µM)
# Method in brief: as §1
# [5] = compound: C1CN(CCN1)C2=CC=C(C=C2)C3=CN4C(=C(C=N4)C5=CC=NC6=CC=CC=C56)N=C3 [DM3189] + O=C(CCCCCCC(=O)Nc1ccccc1)NO [Vorinostat] (partner 1 µM)
# Method in brief: as §1
Cell Line,relative viability ([1]; 0.08 µM),relative viability ([1]; 0.253 µM),relative viability ([1]; 0.8 µM),relative viability ([1]; 2.53 µM),relative viability ([2]; first compound 0.08 µM),relative viability ([2]; first compound 0.253 µM),relative viability ([2]; first compound 0.8 µM),relative viability ([2]; first compound 2.53 µM),relative viability ([3]; first compound 0.08 µM),relative viability ([3]; first compound 0.253 µM),relative viability ([3]; first compound 0.8 µM),relative viability ([3]; first compound 2.53 µM),relative viability ([4]; first compound 0.08 µM),relative viability ([4]; first compound 0.253 µM),relative viability ([4]; first compound 0.8 µM),relative viability ([4]; first compound 2.53 µM),relative viability ([5]; first compound 0.08 µM),relative viability ([5]; first compound 0.253 µM),relative viability ([5]; first compound 0.8 µM),relative viability ([5]; first compound 2.53 µM)
CAL-12T,1.06,0.927,0.975,1.09,0.714,0.823,0.925,0.884,0.508,0.658,0.704,0.543,0.375,0.499,0.454,0.217,0.683,0.785,0.878,0.743
COR-L23,1.06,0.95,0.758,0.95,0.94,1.01,0.559,0.742,0.633,0.455,0.679,0.583,1.12,0.658,0.562,0.521,0.454,0.537,0.387,0.37
COR-L 105,1.22,0.95,0.853,0.808,0.905,1.08,0.804,1.25,0.864,0.685,0.603,0.538,0.812,0.83,0.705,0.778,0.867,0.73,0.835,0.803
EKVX,1.21,0.949,0.887,1,0.896,1,0.717,0.993,0.952,0.918,0.925,0.896,0.96,0.874,0.908,0.962,0.856,0.72,0.678,0.62
EMC-BAC-2,1.09,0.898,0.936,1.22,0.848,0.8,0.82,0.827,0.8,0.71,0.686,0.773,1.24,1.07,1.06,1.25,0.53,0.439,0.477,0.741
EPLC-272H,0.975,0.823,0.917,0.896,1.24,1.3,1.16,1.29,0.97,0.96,0.941,0.821,0.738,0.317,0.25,0.281,0.386,0.517,0.247,0.402
H3255,1.18,0.979,0.899,1.13,0.951,0.982,0.846,0.994,1.09,0.818,0.623,0.845,1.09,0.957,0.799,0.951,1.11,0.826,0.845,0.89
HARA,1.07,0.921,1.01,1.04,1.2,0.853,0.997,1.31,0.991,0.992,0.917,1.21,0.865,0.784,0.55,1.15,0.596,0.539,0.606,0.622
HCC-15,1.07,0.923,0.91,0.942,0.873,0.821,0.857,0.715,0.883,0.763,0.824,0.685,0.355,0.399,0.391,0.369,1.03,0.803,0.732,0.815
HCC-44,1.05,0.957,0.869,0.934,0.711,0.724,0.56,0.733,0.859,0.818,0.625,0.893,1.06,0.879,0.856,0.97,1.08,1.14,0.921,1.08
HCC-827,1.02,1,0.956,0.983,0.982,0.863,0.888,0.938,0.896,0.89,0.866,0.896,0.589,0.515,0.608,0.583,1.04,0.821,0.876,0.681
HOP-62,1.08,0.945,0.932,1.03,1.05,0.901,0.98,1.03,1,0.866,0.939,0.75,0.981,0.905,0.774,1.01,0.566,0.702,0.573,0.66
LC-2-ad,1.07,1,0.874,1.05,0.858,0.847,0.819,0.855,0.419,0.458,0.382,0.378,0.827,0.926,0.891,0.979,0.744,0.7,0.663,0.723
LCLC-97TM1,1.06,0.806,0.797,0.644,0.162,0.188,0.145,0.181,0.304,0.249,0.297,0.313,0.71,0.574,0.699,0.606,0.73,0.647,0.687,0.751
LCLC-103H,1.06,0.935,0.951,1.02,1.1,1.07,1.05,1.17,1.01,1.01,0.963,1.05,0.974,0.985,0.933,0.999,0.816,0.8,0.734,0.744
LK-2,0.687,0.657,0.633,0.537,0.406,0.321,0.447,0.189,0.234,0.241,0.22,0.214,0.188,0.214,0.145,0.191,0.292,0.273,0.213,0.227

Cell Line,relative viability ([1]; 0.08 µM),relative viability ([1]; 0.253 µM),relative viability ([1]; 0.8 µM),relative viability ([1]; 2.53 µM),relative viability ([2]; first compound 0.08 µM),relative viability ([2]; first compound 0.253 µM),relative viability ([2]; first compound 0.8 µM),relative viability ([2]; first compound 2.53 µM),relative viability ([3]; first compound 0.08 µM),relative viability ([3]; first compound 0.253 µM),relative viability ([3]; first compound 0.8 µM),relative viability ([3]; first compound 2.53 µM),relative viability ([4]; first compound 0.08 µM),relative viability ([4]; first compound 0.253 µM),relative viability ([4]; first compound 0.8 µM),relative viability ([4]; first compound 2.53 µM),relative viability ([5]; first compound 0.08 µM),relative viability ([5]; first compound 0.253 µM),relative viability ([5]; first compound 0.8 µM),relative viability ([5]; first compound 2.53 µM)
LOU-NH91,1.16,0.921,0.832,0.924,0.901,0.956,0.802,0.923,0.754,0.709,0.718,0.727,0.361,0.329,0.316,0.377,1.15,0.891,0.71,0.91
LU99A,1.05,0.912,–,0.933,0.49,0.49,–,0.445,0.573,0.527,–,0.509,0.229,0.19,–,0.23,0.492,0.434,–,0.458
LXF-289,0.996,1.04,0.973,1.14,0.977,0.939,0.908,1.06,0.796,0.793,0.781,0.947,0.758,0.583,0.61,0.805,0.759,0.829,0.663,0.757
NCI-H23,1.13,0.805,0.804,0.842,0.649,0.588,0.445,0.742,0.545,0.491,0.442,0.579,0.205,0.229,0.216,0.179,0.668,0.51,0.564,0.539
NCI-H322M,1.06,0.907,0.874,0.707,0.891,0.863,0.921,0.977,1.06,0.848,0.872,0.924,0.958,0.818,0.739,0.666,0.97,0.874,0.783,0.791
NCI-H358,1.01,0.869,0.843,0.913,0.766,0.646,0.71,0.584,0.516,0.56,0.504,0.509,0.463,0.218,0.251,0.257,0.746,0.585,0.628,0.595
NCI-H441,1.26,0.955,1.02,0.981,0.587,0.511,0.518,0.548,0.951,0.751,0.737,0.924,0.288,0.363,0.314,0.264,0.879,0.772,0.885,0.674
NCI-H460,1.01,0.949,0.855,1.12,1.21,0.879,0.708,0.353,0.839,0.939,0.96,1.02,0.0319,0.0329,0.0354,0.0318,1.02,0.725,0.654,0.862
NCI-H520,1.05,0.79,0.844,0.683,0.995,0.863,0.706,0.554,0.752,0.748,0.485,0.303,0.238,0.228,0.214,0.214,0.712,0.633,0.57,0.292
NCI-H596,1.13,0.85,1.05,0.996,1.15,1.13,1.05,1.14,1.15,1.01,0.93,0.943,1.27,1.07,1.09,0.851,0.606,0.669,0.605,0.756
NCI-H647,0.954,0.824,0.734,0.794,0.966,0.946,1,1.17,1.12,0.877,0.883,0.307,0.122,0.146,0.115,0.136,0.624,0.531,0.562,0.343
NCI-H650,1.09,0.848,0.877,0.965,1.12,0.84,0.659,0.763,0.754,0.575,0.594,0.661,0.761,0.729,0.701,0.767,0.391,0.501,0.383,0.428
NCI-H661,1.04,0.949,1.02,1.11,0.606,0.675,0.734,0.747,1,1.01,0.949,1.08,1.07,0.922,0.959,0.78,0.826,0.796,0.809,0.883
NCI-H727,1.02,0.815,0.735,0.986,0.255,0.326,–,0.259,0.889,0.821,–,0.737,0.402,0.377,–,0.31,1.43,1.05,0.972,1.13
NCI-H838,0.978,0.909,0.764,0.922,0.969,0.918,0.716,0.87,0.752,0.815,0.531,0.732,0.309,0.322,0.242,0.246,0.757,0.675,0.65,0.733
